# In US9796714B2, “Calcium channel agonists” (University of Pittsburgh—Of the Commonwealth System of …, priority 2013, dated 2017):
# How the values were obtained:
# [1] = biological target: T1, N-type Ca^2+ channel (Cav2.2) (Rattus norvegicus, UniProt Q02294); assay: N-type Ca2+ channel agonist activity, whole-cell perforated patch clamp of tail currents in tsA201 cells; assay type: cell-based; conditions: for EC50: whole cell perforated patch clamp, deactivation (tail) currents from N-type channels, read-out: N-Type Ca^2+ Channel Activity EC50 +/− SEM
# T1 construct: expressed in transfected cells; later also transient transfection
# T1 sequence (Q02294 whole entry): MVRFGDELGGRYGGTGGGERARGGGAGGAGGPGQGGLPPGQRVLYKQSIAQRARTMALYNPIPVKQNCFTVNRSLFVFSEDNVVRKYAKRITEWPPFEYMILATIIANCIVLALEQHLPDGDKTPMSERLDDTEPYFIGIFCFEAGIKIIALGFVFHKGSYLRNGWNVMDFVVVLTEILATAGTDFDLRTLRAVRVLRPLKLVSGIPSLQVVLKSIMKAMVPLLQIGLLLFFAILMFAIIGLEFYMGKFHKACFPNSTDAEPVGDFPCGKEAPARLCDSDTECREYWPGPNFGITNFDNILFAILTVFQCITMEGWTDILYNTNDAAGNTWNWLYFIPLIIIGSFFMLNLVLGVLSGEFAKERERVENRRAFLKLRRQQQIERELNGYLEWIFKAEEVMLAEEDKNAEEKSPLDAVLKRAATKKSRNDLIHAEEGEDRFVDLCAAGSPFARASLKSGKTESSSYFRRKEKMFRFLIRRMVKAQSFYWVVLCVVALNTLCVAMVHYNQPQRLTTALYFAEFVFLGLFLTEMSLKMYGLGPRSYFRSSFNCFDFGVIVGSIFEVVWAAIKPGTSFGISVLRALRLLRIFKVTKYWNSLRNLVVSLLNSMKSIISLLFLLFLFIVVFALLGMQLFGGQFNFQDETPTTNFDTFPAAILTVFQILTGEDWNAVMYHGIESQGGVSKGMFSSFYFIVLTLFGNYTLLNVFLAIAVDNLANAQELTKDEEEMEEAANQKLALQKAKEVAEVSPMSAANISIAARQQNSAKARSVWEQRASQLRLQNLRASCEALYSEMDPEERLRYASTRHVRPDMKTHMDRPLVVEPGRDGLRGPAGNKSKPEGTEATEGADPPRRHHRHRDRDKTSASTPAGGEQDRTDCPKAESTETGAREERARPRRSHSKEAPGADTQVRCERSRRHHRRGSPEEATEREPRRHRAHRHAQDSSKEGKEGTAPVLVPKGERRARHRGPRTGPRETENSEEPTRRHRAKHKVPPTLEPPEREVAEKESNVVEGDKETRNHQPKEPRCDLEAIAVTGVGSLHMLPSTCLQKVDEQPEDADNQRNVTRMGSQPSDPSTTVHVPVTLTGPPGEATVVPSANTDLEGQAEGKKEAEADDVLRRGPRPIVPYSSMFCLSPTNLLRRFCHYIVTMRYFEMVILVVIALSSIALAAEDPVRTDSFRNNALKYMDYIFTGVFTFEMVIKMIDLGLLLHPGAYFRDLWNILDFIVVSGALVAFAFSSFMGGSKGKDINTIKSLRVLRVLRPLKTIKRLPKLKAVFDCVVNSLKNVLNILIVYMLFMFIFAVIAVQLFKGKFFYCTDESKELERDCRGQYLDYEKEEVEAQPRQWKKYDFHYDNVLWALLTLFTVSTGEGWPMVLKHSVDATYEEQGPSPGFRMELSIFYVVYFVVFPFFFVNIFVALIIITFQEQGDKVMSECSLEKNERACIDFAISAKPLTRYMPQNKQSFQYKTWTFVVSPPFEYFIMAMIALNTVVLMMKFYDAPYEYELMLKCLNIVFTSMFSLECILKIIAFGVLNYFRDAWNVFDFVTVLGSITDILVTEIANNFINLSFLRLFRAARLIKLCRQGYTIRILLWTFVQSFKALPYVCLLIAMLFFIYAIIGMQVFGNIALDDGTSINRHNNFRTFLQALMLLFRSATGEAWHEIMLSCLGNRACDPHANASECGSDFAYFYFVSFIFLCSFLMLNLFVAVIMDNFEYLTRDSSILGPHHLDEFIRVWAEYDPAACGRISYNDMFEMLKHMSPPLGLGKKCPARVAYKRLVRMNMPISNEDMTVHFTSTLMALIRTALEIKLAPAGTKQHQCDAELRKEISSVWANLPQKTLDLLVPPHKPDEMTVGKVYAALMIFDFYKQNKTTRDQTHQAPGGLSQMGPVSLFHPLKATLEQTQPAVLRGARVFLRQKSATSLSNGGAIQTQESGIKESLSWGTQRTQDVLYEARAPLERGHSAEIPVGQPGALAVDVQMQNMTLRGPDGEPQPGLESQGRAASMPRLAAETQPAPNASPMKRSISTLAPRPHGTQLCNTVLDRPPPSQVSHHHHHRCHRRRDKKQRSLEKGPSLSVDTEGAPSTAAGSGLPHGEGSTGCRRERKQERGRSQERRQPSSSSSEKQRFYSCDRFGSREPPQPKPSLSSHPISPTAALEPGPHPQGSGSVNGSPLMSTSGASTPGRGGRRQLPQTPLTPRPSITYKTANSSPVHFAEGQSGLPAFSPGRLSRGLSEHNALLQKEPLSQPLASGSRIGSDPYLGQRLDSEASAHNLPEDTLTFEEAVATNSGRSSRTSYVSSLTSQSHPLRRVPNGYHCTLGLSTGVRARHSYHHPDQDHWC
# Method: tsA201 cells expressing calcium channels. […] For subsequent evaluation of effects on N-, P/Q-, or L-type channels, tsA-201 cells were transiently transfected with Cav2.2, Cav2.1, or Cav1.3, in combination with Cavβ3 and […] (Addgene, Cambridge Mass.) using FuGENE 6 (Life Technologies, Grand Island, N.Y.). All cells were maintained in DMEM supplemented with 10% fetal bovine serum. For the stable cell line expressing N-type channels, 25 μg/mL zeocin, 5 μg/mL blasticidin, and 25 μg/mL hygromycin were added as selection agents.
# Whole-cell patch clamp recordings of calcium current. […] Briefly, the pipette solution consisted of […] Cs2SO4, 60 mM CsCl, 1 mM MgCl2, 10 mM 4-(2-hydroxyethyl)-1-piperazineethanesulfonic acid (HEPES) at pH 7.4. […] Patch pipettes were fabricated from borosilicate glass and pulled to a resistance of about 1 MΩ. Before each experiment, a stock solution consisting of 3 mg amphotericin-B dissolved into 50 μL anhydrous DMSO was made. […] Capacitive currents and passive membrane responses to voltage commands were subtracted from the data. Currents were amplified by an Axopatch 200B amplifier, filtered at 5 KHz, and digitized at 10 KHz for subsequent analysis using pClamp software (Axon Instruments/Molecular Devices; Sunnyvale, Calif.). […] To measure effects on calcium channel tail currents, the tail current integral was measured before and after application of a derivative, with the integral of each trace being normalized to its peak. All experiments were carried out at room temperature (22° C.). […] All other salts and chemicals were obtained from Sigma-Aldrich chemical company (St. Louis, Mo.).
# Statistical Analysis. Statistical analysis was performed using either GraphPad Prism 5 (GraphPad Software, Inc.) or Origin 7 (OriginLab) software. For the dose-response analyses on Ca^2+ current, each concentration of the four different compounds was tested in 3-6 cells. […] All EC50 and IC50 values and their respective errors were determined by performing 100 iterations of a logistic function curve fit. Data are presented as mean±s.e.m. unless otherwise noted.
# [2] = cited from earlier work
# LEMS model NMJs = assay: Intracellular recordings at LEMS model mouse NMJs, 13x, DAP and combination (Example 4); conditions: 50 μM 13x, […] DAP, or both
# Method: To test this, intracellular microelectrode recordings were performed on ex vivo nerve-muscle preparations taken from LEMS passive-transfer model mice and measured the magnitude of acetylcholine released at the neuromuscular junction. The most sensitive method of quantifying the magnitude of acetylcholine released is to determine the quantal content. Quantal content is defined as the number of neurotransmitter-containing synaptic vesicles that are released from the nerve terminal during a single action potential stimulus. This value was determined by first measuring the area under the average action potential-evoked endplate potential (EPP) and then dividing this value by the area under the average single vesicle release event (miniature endplate potential; mEPP). This value could be compared between experimental groups to provide an accurate measurement of changes in the magnitude of acetylcholine released during a single action potential. Using this approach, the quantal content among five experimental conditions was compared: control NMJs, LEMS NMJs, LEMS NMJs exposed to 50 μM 13x, LEMS NMJs exposed to 1.5 μM DAP, and LEMS NMJs exposed to 50 μM 13x+1.5 μM DAP (FIG. 10). […]; EPP amplitude=10.18±0.62 mV) as compared with control serum treated mouse NMJs (QC=107.5±3.6; EPP amplitude=34.62±1.37 mV; Tarr et al., 2013). […] In fact, this 13x-mediated enhancement was very similar to what was observed after exposure of LEMS model NMJs to 1.5 μM DAP (QC=49.0±4.4; EPP amplitude=17.94±1.381 mV). […]; EPP amplitude=34.62±1.37 mV; Tarr et al., 2013). […] In summary, while either 13x or DAP alone caused about an 80% increase in transmitter release from LEMS model NMJs, the combination of 13x plus DAP caused about a 300% increase in transmitter release.
# [3] = system: LEMS passive transfer mouse NMJs; assay: Intracellular recordings at LEMS passive transfer mouse NMJs, ex vivo ETA nerve-muscle preparation (Example 3); conditions: 50 μM, mean±SD, aBC2 LEMS passive transfer NMJs
# Method: LEMS passive transfer. To test GV-58 in a LEMS model NMJ, an established LEMS passive transfer mouse model was utilized. To perform the passive transfer of LEMS, mice were injected with the serum of patients diagnosed with LEMS. […] Each serum sample was tested for the presence of voltage-gated Ca^2+ channel antibodies using a Ca^2+ channel antibody radioimmune assay (Kronus RIA kit, Star, Id.). Control serum was obtained from the University of Pittsburgh Medical Center blood bank. […]; 25-32 g; Charles River Laboratories) were divided into two groups: one group that received LEMS serum, and a control group that received control serum.
# Intracellular recordings at mouse NMJs. […] A thin upper arm muscle, the epitrochleoanconeus (ETA), was chosen for these recordings. […] […]. A train of 10 EPPs was also collected in each muscle fiber using an inter-stimulus interval of 20 msec. To analyze the data, both the amplitudes and the areas under the waveforms (integral) were determined after correcting each digitized point in each trace for non-linear summation. Data were collected and analyzed using an Axoclamp 900A and the pClamp 10 suite of programs (Molecular Devices, Sunnyvale, Calif.).
# Statistical Analysis. […] For the dose-response analyses on Ca^2+ current, each concentration of the four different compounds was tested in 3-6 cells. […]. All EC50 and IC50 values and their respective errors were determined by performing 100 iterations of a logistic function curve fit.
# [4] = oral administration to patients
SMILES,EC50 [1] [µM],also measured
"CCCn1cnc2c(NCc3ccc(-c4ccccc4)cc3)nc(N[C@H](CC)CO)nc21 [Compound 13a, (R)-2-(6-(Biphenyl-4-ylmethylamino)-9-propyl-9H-purin-2-ylamino)butan-1-ol]",> 100,–
"CCCn1cnc2c(NCCc3ccccc3)nc(N[C@H](CC)CO)nc21 [Compound 13c, (R)-2-(6-(Phenethylamino)-9-propyl-9H-purin-2-ylamino)butan-1-ol]",> 100,–
"CCCn1cnc2c(NCc3ccccc3)nc(N[C@H](CC)CO)nc21 [Compound 13d, (R)-2-(6-(Benzylamino)-9-propyl-9H-purin-2-ylamino)butan-1-ol]",14.2,increased Ca^2+ channel agonism vs. (R)-roscovitine ([1]; N-type): ca. 2 fold
"CCCn1cnc2c(Nc3ccccc3)nc(N[C@H](CC)CO)nc21 [Compound 13e, (R)-2-(6-(Phenylamino)-9-propyl-9H-purin-2-ylamino)butan-1-ol]",> 100,–
"CCCn1cnc2c(NCc3cccnc3)nc(N[C@H](CC)CO)nc21 [Compound 13f, (R)-2-(9-Propyl-6-(pyridin-3-ylmethylamino)-9H-purin-2-ylamino)butan-1-ol]",> 100,–
"CCCn1cnc2c(NCC3CC3)nc(N[C@H](CC)CO)nc21 [Compound 13g, (R)-2-(6-(Cyclopropylmethylamino)-9-propyl-9H-purin-2-ylamino)butan-1-ol]",> 100,agonist effect on the Ca^2+ channel tail currents (in words) ([1]; N-type): complete loss of N-type Ca^2+ channel activity
"CC[C@H](CO)Nc1nc(NCc2ccc(-c3ccccc3)cc2)c2ncn(C)c2n1 [Compound 13h, (R)-2-(6-(Biphenyl-4-ylmethylamino)-9-methyl-9H-purin-2-ylamino)butan-1-ol]",> 100,–
"CC[C@H](CO)Nc1nc(NCCc2ccccc2)c2ncn(C)c2n1 [Compound 13j, (R)-2-(9-Methyl-6-(phenethylamino)-9H-purin-2-ylamino)butan-1-ol]",> 100,–
"CC[C@H](CO)Nc1nc(Nc2ccccc2)c2ncn(C)c2n1 [Compound 13l, (R)-2-(9-Methyl-6-(phenylamino)-9H-purin-2-ylamino)butan-1-ol]",> 100,–
"CC[C@H](CO)Nc1nc(NCC2CC2)c2ncn(C)c2n1 [Compound 13m, (R)-2-(6-(Cyclopropylmethylamino)-9-methyl-9H-purin-2-ylamino)butan-1-ol]",> 100,–
"CC[C@H](CO)Nc1nc(NCc2cccnc2)c2ncn(C)c2n1 [Compound 13n, (R)-2-(9-Methyl-6-(pyridin-3-ylmethylamino)-9H-purin-2-ylamino)butan-1-ol]",> 100,–
"CCCn1cnc2c(NCc3ccc(C(F)(F)F)cc3)nc(N[C@H](CC)CO)nc21 [Compound 13o, (R)-2-(9-Propyl-6-(4-(trifluoromethyl)benzylamino)-9H-purin-2-ylamino)butan-1-ol]",> 100,–
"CC[C@H](CO)Nc1nc(NCC2CC2)c2ncn(C(C)C)c2n1 [Compound 13p, (R)-2-(6-(Cyclopropylmethylamino)-9-isopropyl-9H-purin-2-ylamino)butan-1-ol]",> 100,–
"CC[C@H](CO)Nc1nc(NCCc2ccccc2)c2ncn(C(C)C)c2n1 [Compound 13q, (R)-2-(9-Isopropyl-6-(phenethylamino)-9H-purin-2-ylamino)butan-1-ol]",> 100,–
"CC[C@H](CO)Nc1nc(NCc2cccnc2)c2ncn(C(C)C)c2n1 [Compound 13r, (R)-2-(9-Isopropyl-6-(pyridin-3-ylmethylamino)-9H-purin-2-ylamino)butan-1-ol]",> 100,–
"CC[C@H](CO)Nc1nc(NCc2ccc(-c3ccccc3)cc2)c2ncn(C(C)C)c2n1 [Compound 13s, (R)-2-(6-(Biphenyl-4-ylmethylamino)-9-isopropyl-9H-purin-2-ylamino)butan-1-ol]",> 100,–
"CC[C@H](CO)Nc1nc(NC(c2ccccc2)c2ccccc2)c2ncn(C(C)C)c2n1 [Compound 13t, (R)-2-(6-(Benzhydrylamino)-9-isopropyl-9H-purin-2-ylamino)butan-1-ol]",> 100,–
"CC[C@H](CO)Nc1nc(NCc2cccc(C(F)(F)F)c2)c2ncn(C(C)C)c2n1 [Compound 13v, (R)-2-(9-Isopropyl-6-(3-(trifluoromethyl)benzylamino)-9H-purin-2-ylamino)butan-1-ol]",> 100,–
"Nc1ccncc1N [DAP, 3,4-diaminopyridine, reference compound]",–,"serum levels ([2]; clinical trials, 10-20 mg 3 times per day): about 0.5 μM; peak serum levels [2, 4]: 70 to 150 ng/mL; peak serum levels, corresponding concentration [2, 4]: 0.5 to 1.5 µM; 10th EPP of 50 Hz train as % of the first EPP (short-term plasticity) (LEMS model NMJs): ~132%; increase in transmitter release from LEMS model NMJs (LEMS model NMJs): ~80%; EPP amplitude (LEMS model NMJs; LEMS model NMJs): 17.94±1.381 mV; quantal content (QC, area of EPP divided by area of mEPP) (LEMS model NMJs; LEMS model NMJs, mean±s.e.m.): 49.0±4.4"
"Cn1cnc2c(NCc3ccccc3)nc(NCCO)nc21 [olomoucine, reference compound]",–,"quantal content (EPP peak amplitude divided by mEPP peak amplitude) [3]: 33.4±11.3; quantal content determined from the area (integral) under EPP and mEPP waveforms [3]: 34.6±11.2; quantal content (EPP peak amplitude divided by mEPP peak amplitude) ([3]; listed as oloumucine): slightly, but significantly smaller; quantal content determined from the area (integral) under EPP and mEPP waveforms ([3]; listed as oloumucine): not significantly different"
